According to ChEMBL document CHEMBL4507261, “Data for DCP probe A-192621” (2021):

Tests used:
[1] = target: Histamine H1 receptor (Homo sapiens) (UniProt P35367); assay: H1 (h) Eurofins-Cerep binding assay; parameters: ligand concentration 1 nM; conditions: filed as antagonist, Compound concentration 10.0 uM
[2] = target: Mitogen-activated protein kinase kinase kinase 5 (Homo sapiens) (UniProt Q99683); conditions: Compound concentration 1000.0 nM
[3] = target: Ephrin type-A receptor 1 (Homo sapiens) (UniProt P21709); conditions: Compound concentration 1000.0 nM
[4] = target: Fibroblast growth factor receptor 2 (Homo sapiens) (UniProt P21802); conditions: Compound concentration 1000.0 nM
[5] = target: Mitogen-activated protein kinase kinase kinase 10 (Homo sapiens) (UniProt Q02779); conditions: Compound concentration 1000.0 nM
[6] = test system: Epidermal growth factor receptor (Homo sapiens), P00533 [UNDEFINED MUTATION]; conditions: Compound concentration 1000.0 nM
[7] = target: Myosin light chain kinase 2, skeletal/cardiac muscle (Homo sapiens) (UniProt Q9H1R3); conditions: Compound concentration 1000.0 nM
[8] = test system: Mast/stem cell growth factor receptor Kit (Homo sapiens), P10721 [L576P]; conditions: Compound concentration 1000.0 nM
[9] = target: Serine/threonine-protein kinase D3 (Homo sapiens) (UniProt O94806); conditions: Compound concentration 1000.0 nM
[10] = test system: Tyrosine-protein kinase ABL1 (Homo sapiens), P00519 [Y253F]; conditions: Compound concentration 1000.0 nM
[11] = target: Serine/threonine-protein kinase PAK 6 (Homo sapiens) (UniProt Q9NQU5); conditions: Compound concentration 1000.0 nM
[12] = target: Ephrin type-A receptor 5 (Homo sapiens) (UniProt P54756); conditions: Compound concentration 1000.0 nM
[13] = target: Discoidin domain-containing receptor 2 (Homo sapiens) (UniProt Q16832); conditions: Compound concentration 1000.0 nM
[14] = target: Tyrosine-protein kinase CSK (Homo sapiens) (UniProt P41240); conditions: Compound concentration 1000.0 nM
[15] = target: Serine/threonine-protein kinase D2 (Homo sapiens) (UniProt Q9BZL6); conditions: Compound concentration 1000.0 nM
[16] = target: Phosphorylase b kinase gamma catalytic chain, skeletal muscle/heart isoform (Homo sapiens) (UniProt Q16816); conditions: Compound concentration 1000.0 nM
[17] = target: Citron Rho-interacting kinase (Homo sapiens) (UniProt O14578); conditions: Compound concentration 1000.0 nM
[18] = target: SNF-related serine/threonine-protein kinase (Homo sapiens) (UniProt Q9NRH2); conditions: Compound concentration 1000.0 nM
[19] = target: Macrophage colony-stimulating factor 1 receptor (Homo sapiens) (UniProt P07333); conditions: Compound concentration 1000.0 nM
[20] = target: Rhodopsin kinase GRK7 (Homo sapiens) (UniProt Q8WTQ7); conditions: Compound concentration 1000.0 nM
[21] = target: Adenosine receptor A2a (Homo sapiens) (UniProt P29274); assay: A2A (h) Eurofins-Cerep binding assay; parameters: ligand concentration 6 nM; conditions: filed as agonist, Compound concentration 10.0 uM
[22] = target: Calcium/calmodulin-dependent protein kinase type II subunit gamma (Homo sapiens) (UniProt Q13555); conditions: Compound concentration 1000.0 nM
[23] = target: Protein kinase C epsilon type (Homo sapiens) (UniProt Q02156); conditions: Compound concentration 1000.0 nM
[24] = target: Serine/threonine-protein kinase Chk2 (Homo sapiens) (UniProt O96017); conditions: Compound concentration 1000.0 nM
[25] = target: Serine/threonine-protein kinase 26 (Homo sapiens) (UniProt Q9P289); conditions: Compound concentration 1000.0 nM
[26] = target: Myosin-IIIa (Homo sapiens) (UniProt Q8NEV4); conditions: Compound concentration 1000.0 nM
[27] = target: Tyrosine-protein kinase HCK (Homo sapiens) (UniProt P08631); conditions: Compound concentration 1000.0 nM
[28] = test system: Phosphatidylinositol 4,5-bisphosphate 3-kinase catalytic subunit alpha isoform (Homo sapiens), P42336 [E545K]; conditions: Compound concentration 1000.0 nM
[29] = target: Cytoplasmic tyrosine-protein kinase BMX (Homo sapiens) (UniProt P51813); conditions: Compound concentration 1000.0 nM
[30] = target: Mitogen-activated protein kinase kinase kinase 2 (Homo sapiens) (UniProt Q9Y2U5); conditions: Compound concentration 1000.0 nM
[31] = test system: ALK tyrosine kinase receptor (Homo sapiens), Q9UM73 [L1196M]; conditions: Compound concentration 1000.0 nM
[32] = target: Serine/threonine-protein kinase 3 (Homo sapiens) (UniProt Q13188); conditions: Compound concentration 1000.0 nM
[33] = target: T1, Alpha-1B adrenergic receptor (Homo sapiens) (UniProt P35368); assay: Alpha1B (h) Eurofins-Cerep binding assay; conditions: filed as antagonist, Compound concentration 10.0 uM
T1 sequence (whole entry): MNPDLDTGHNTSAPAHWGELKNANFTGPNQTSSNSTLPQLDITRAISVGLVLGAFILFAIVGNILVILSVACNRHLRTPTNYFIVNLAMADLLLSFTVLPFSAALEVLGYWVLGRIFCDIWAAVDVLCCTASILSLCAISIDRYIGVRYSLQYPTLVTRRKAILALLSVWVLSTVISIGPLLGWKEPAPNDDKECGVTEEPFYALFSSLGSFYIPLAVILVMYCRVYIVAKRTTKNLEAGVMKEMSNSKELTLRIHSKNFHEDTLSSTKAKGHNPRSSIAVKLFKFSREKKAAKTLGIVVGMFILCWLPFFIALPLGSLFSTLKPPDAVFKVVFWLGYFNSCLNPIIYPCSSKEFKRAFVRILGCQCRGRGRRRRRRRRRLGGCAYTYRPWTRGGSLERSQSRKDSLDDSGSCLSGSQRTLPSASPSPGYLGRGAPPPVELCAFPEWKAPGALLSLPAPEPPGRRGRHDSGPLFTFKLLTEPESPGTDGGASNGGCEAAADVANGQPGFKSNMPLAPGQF

[34] = target: Tyrosine-protein kinase receptor TYRO3 (Homo sapiens) (UniProt Q06418); conditions: Compound concentration 1000.0 nM
[35] = target: Cyclin-dependent kinase 4 (Homo sapiens) (UniProt P11802); conditions: Compound concentration 1000.0 nM
[36] = target: Ephrin type-A receptor 4 (Homo sapiens) (UniProt P54764); conditions: Compound concentration 1000.0 nM
[37] = target: Tyrosine-protein kinase BTK (Homo sapiens) (UniProt Q06187); conditions: Compound concentration 1000.0 nM
[38] = target: Serine/threonine-protein kinase 36 (Homo sapiens) (UniProt Q9NRP7); conditions: Compound concentration 1000.0 nM

Sequence of Tyrosine-protein kinase receptor TYRO3 (Homo sapiens) (Q06418 whole entry): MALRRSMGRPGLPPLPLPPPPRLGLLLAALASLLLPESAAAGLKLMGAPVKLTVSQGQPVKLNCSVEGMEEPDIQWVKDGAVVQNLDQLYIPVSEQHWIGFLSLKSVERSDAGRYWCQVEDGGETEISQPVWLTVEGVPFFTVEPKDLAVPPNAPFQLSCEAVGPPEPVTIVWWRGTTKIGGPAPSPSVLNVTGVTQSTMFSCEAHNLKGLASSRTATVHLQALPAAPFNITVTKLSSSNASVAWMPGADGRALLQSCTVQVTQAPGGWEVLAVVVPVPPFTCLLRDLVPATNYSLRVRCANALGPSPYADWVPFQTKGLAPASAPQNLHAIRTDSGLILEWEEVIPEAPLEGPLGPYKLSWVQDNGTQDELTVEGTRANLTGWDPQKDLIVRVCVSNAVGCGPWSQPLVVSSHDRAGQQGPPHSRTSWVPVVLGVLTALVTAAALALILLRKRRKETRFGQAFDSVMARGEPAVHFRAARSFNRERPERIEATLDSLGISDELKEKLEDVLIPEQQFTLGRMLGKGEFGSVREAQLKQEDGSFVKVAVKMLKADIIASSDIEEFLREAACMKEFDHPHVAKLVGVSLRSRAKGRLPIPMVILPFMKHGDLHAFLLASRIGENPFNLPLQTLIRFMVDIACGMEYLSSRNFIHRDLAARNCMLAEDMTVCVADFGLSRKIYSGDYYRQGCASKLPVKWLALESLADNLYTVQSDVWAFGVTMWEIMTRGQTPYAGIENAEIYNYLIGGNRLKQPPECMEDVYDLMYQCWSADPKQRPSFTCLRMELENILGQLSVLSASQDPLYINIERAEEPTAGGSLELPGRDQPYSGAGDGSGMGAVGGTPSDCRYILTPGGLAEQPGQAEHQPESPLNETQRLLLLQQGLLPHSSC
Sequence of Phosphatidylinositol 4,5-bisphosphate 3-kinase catalytic subunit alpha isoform (Homo sapiens), P42336 [E545K] (P42336 whole entry E545K, canonical isoform): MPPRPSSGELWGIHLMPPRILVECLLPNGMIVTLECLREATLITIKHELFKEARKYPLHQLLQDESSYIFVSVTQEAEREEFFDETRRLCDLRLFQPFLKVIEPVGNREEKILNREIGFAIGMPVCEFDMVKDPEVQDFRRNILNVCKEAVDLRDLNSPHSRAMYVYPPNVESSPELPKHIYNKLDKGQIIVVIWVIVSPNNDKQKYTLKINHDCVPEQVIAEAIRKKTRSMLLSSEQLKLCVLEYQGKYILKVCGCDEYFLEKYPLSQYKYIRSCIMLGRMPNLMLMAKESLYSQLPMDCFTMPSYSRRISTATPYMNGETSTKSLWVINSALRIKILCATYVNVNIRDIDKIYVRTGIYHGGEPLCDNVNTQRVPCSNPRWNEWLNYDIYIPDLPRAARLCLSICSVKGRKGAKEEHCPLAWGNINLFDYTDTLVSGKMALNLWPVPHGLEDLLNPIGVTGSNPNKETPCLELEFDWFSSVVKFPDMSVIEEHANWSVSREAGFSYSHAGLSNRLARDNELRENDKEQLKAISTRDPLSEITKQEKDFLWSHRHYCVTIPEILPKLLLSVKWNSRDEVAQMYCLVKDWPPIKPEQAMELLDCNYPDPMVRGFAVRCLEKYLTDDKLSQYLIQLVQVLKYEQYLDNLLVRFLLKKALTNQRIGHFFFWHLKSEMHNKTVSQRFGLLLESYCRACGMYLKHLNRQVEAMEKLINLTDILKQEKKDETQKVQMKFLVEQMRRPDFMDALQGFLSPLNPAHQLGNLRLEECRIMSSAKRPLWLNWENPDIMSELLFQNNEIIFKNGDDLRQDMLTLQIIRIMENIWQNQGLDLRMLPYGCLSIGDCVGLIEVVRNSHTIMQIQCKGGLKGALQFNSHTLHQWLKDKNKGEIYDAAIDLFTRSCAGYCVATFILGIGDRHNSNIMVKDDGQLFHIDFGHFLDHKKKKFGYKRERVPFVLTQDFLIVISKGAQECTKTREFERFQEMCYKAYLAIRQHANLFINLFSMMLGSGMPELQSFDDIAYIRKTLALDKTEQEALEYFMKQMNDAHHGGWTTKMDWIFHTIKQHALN
Sequence of Serine/threonine-protein kinase D2 (Homo sapiens) (Q9BZL6 whole entry, canonical isoform): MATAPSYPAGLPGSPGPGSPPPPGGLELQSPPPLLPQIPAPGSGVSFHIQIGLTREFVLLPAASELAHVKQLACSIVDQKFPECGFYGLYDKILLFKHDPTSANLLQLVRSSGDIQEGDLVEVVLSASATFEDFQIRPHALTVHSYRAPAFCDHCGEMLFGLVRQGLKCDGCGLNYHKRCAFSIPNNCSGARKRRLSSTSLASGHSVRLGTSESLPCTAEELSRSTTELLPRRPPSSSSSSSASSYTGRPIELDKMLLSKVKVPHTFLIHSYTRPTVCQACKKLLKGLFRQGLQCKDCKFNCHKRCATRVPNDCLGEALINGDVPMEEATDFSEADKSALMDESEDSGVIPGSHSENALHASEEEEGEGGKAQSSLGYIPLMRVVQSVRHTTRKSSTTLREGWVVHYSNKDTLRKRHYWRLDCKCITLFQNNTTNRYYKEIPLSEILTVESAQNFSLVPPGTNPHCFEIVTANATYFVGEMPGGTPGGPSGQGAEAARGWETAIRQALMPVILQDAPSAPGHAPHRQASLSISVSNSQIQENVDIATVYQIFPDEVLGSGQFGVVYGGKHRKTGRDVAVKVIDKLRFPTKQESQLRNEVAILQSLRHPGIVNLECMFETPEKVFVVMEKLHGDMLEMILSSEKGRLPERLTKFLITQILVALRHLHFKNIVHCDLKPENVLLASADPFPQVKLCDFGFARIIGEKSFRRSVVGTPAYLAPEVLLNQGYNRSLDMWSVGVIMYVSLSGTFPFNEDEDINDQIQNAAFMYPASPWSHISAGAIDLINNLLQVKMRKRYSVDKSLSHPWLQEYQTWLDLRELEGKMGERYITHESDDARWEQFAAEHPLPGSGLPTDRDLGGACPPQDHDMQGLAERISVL
Sequence of Serine/threonine-protein kinase 3 (Homo sapiens) (Q13188 whole entry): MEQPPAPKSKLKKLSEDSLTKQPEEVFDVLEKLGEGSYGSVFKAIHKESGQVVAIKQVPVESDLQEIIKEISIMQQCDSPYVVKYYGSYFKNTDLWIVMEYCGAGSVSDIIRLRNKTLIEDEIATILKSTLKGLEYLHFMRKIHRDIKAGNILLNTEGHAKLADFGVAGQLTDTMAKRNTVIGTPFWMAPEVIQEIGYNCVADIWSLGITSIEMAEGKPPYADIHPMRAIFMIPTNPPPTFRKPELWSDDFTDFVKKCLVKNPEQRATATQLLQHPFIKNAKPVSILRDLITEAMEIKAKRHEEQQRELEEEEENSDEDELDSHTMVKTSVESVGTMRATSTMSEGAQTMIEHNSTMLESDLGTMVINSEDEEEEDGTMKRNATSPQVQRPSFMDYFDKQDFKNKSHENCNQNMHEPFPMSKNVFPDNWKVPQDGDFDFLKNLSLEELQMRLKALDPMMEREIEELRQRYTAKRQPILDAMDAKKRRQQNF
Sequence of Adenosine receptor A2a (Homo sapiens) (P29274 whole entry): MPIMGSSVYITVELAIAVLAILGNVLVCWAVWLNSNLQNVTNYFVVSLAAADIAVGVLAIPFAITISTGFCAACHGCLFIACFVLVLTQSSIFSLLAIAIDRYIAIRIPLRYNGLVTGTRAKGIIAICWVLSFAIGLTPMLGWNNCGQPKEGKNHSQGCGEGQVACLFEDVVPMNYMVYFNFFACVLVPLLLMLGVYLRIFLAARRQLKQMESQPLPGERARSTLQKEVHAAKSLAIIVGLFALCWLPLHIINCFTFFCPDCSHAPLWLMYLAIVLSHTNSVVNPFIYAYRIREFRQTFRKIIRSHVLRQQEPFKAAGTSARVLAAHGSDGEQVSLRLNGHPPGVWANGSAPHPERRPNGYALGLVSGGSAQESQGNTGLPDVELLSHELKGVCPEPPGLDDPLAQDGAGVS
Sequence of Serine/threonine-protein kinase PAK 6 (Homo sapiens) (Q9NQU5 whole entry, looked up): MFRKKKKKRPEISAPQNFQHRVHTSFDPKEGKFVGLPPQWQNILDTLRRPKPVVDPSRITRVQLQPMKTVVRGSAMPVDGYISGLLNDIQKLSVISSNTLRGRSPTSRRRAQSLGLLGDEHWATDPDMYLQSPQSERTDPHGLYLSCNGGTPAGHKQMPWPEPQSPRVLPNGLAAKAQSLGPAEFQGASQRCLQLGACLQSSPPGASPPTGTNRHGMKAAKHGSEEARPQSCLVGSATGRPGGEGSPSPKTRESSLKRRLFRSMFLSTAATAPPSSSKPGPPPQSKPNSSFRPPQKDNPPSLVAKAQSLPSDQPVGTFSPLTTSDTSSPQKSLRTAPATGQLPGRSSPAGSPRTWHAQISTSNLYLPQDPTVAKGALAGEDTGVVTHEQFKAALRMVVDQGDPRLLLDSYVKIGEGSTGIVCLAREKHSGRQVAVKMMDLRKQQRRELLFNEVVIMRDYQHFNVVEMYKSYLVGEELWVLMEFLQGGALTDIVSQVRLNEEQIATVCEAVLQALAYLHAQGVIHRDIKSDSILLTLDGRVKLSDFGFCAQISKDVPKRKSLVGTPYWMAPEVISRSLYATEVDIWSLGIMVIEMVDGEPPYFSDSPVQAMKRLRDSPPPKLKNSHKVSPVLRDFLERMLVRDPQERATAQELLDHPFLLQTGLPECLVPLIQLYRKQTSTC
Sequence of Tyrosine-protein kinase HCK (Homo sapiens) (P08631 2-526 limits assumed): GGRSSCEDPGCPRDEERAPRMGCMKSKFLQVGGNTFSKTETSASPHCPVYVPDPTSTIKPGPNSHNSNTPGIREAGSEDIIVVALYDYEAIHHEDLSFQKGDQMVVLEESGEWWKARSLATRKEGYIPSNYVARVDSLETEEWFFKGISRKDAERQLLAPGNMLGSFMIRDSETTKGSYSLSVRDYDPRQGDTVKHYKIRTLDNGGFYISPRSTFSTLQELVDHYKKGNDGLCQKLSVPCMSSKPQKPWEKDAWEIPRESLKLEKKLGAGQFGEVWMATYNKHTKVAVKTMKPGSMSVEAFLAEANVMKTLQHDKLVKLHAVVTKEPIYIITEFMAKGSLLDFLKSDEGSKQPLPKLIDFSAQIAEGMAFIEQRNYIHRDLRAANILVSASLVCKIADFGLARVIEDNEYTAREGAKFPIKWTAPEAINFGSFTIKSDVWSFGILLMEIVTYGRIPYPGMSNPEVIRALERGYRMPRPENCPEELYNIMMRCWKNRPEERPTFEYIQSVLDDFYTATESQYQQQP

`CCCOc1ccc([C@@H]2[C@@H](C(=O)O)[C@H](c3ccc4c(c3)OCO4)CN2CC(=O)Nc2c(CC)cccc2CC)cc1` [A-1806262] was tested. Which % Inhibition of Control Specific Binding (Mean n=2) [1] did it give?
Its % Inhibition of Control Specific Binding (Mean n=2) is -10%.

What about the residual activity [2] of the same compound?
The residual activity was 97%.

What about the residual activity [3] of the same compound?
The residual activity was 100%.

What about the residual activity [4] of the same compound?
The residual activity was 100%.

What about the residual activity [5] of the same compound?
The residual activity was 100%.

What about the residual activity [6] of the same compound?
Its residual activity is 78%.

And the residual activity [7]?
Its residual activity is 93%.

What about the residual activity [8] of the same compound?
The residual activity was 100%.

And the residual activity [9]?
Its residual activity is 86%.

And the residual activity [10]?
Its residual activity is 87%.

And the residual activity [11]?
The residual activity was 83%.

And the residual activity [12]?
The residual activity was 100%.

And the residual activity [13]?
Its residual activity is 74%.

What about the residual activity [14] of the same compound?
The residual activity was 91%.

And the residual activity [15]?
Its residual activity is 100%.

And the residual activity [16]?
The residual activity was 97%.

And the residual activity [17]?
The residual activity was 98%.

And the residual activity [18]?
Its residual activity is 87%.

What about the residual activity [19] of the same compound?
The residual activity was 100%.

What about the residual activity [20] of the same compound?
The residual activity was 99%.

And the % Inhibition of Control Specific Binding (Mean n=2) [21]?
The % Inhibition of Control Specific Binding (Mean n=2) was -12.4%.

What about the residual activity [22] of the same compound?
Its residual activity is 88%.

And the residual activity [23]?
Its residual activity is 97%.

What about the residual activity [24] of the same compound?
The residual activity was 98%.

What about the residual activity [25] of the same compound?
The residual activity was 81%.

What about the residual activity [26] of the same compound?
Its residual activity is 100%.

What about the residual activity [27] of the same compound?
The residual activity was 92%.

What about the residual activity [28] of the same compound?
Its residual activity is 68%.

And the residual activity [29]?
Its residual activity is 100%.

And the residual activity [30]?
Its residual activity is 100%.

What about the residual activity [31] of the same compound?
The residual activity was 78%.

What about the residual activity [32] of the same compound?
The residual activity was 100%.

And the % Inhibition of Control Specific Binding (Mean n=2) [33]?
The % Inhibition of Control Specific Binding (Mean n=2) was 3.1%.

And the residual activity [34]?
Its residual activity is 94%.

And the residual activity [35]?
Its residual activity is 100%.

And the residual activity [36]?
Its residual activity is 75%.

And the residual activity [37]?
The residual activity was 72%.

And the residual activity [38]?
Its residual activity is 88%.

Which results are given for `CCCOc1ccc([C@H]2[C@H](C(=O)O)[C@@H](c3ccc4c(c3)OCO4)CN2CC(=O)Nc2c(CC)cccc2CC)cc1` [A-192621]?
% Inhibition of Control Specific Binding (Mean n=2) [1]: -4.4%; residual activity [2]: 91%; residual activity [3]: 86%; residual activity [4]: 100%; residual activity [5]: 100%; residual activity [6]: 100%; residual activity [7]: 91%; residual activity [8]: 90%; residual activity [9]: 93%; residual activity [10]: 75%; residual activity [11]: 68%; residual activity [12]: 100%; residual activity [13]: 71%; residual activity [14]: 80%; residual activity [15]: 84%; residual activity [16]: 99%; residual activity [17]: 83%; residual activity [18]: 84%; residual activity [19]: 90%; residual activity [20]: 100%; % Inhibition of Control Specific Binding (Mean n=2) [21]: -4.8%; residual activity [22]: 95%; residual activity [23]: 74%; residual activity [24]: 88%; residual activity [25]: 74%; residual activity [26]: 100%; residual activity [27]: 92%; residual activity [28]: 61%; residual activity [29]: 100%; residual activity [30]: 82%; residual activity [31]: 91%; residual activity [32]: 96%; % Inhibition of Control Specific Binding (Mean n=2) [33]: 3.2%; residual activity [34]: 100%; residual activity [35]: 100%; residual activity [36]: 97%; residual activity [37]: 55%; residual activity [38]: 98%
